From patent publication US9247741B2, “Use of macrocyclic picolinamides as fungicides” (DOW AGROSCIENCES LLC, priority 2013, dated 2016) come the findings set out here.

One data set relates to Leptosphaeria nodorum. As to the kind of experiment: Wheat glume blotch (LEPTNO) disease control. It is filed as in vivo. The conditions noted are these: Parastagonospora nodorum, 24 h, 1 Day Protectant, read-out: LEPTNO disease control rating. The method, then: Technical grades of materials were dissolved in acetone, which were then mixed with nine volumes of water containing 110 ppm Triton X-100. The fungicide solutions were applied onto wheat seedlings using an automated booth sprayer to run-off. All sprayed plants were allowed to air dry prior to further handling. All fungicides were evaluated using the aforementioned method for their activity vs. all target diseases. Wheat leaf blotch and brown rust activity were also evaluated using track spray applications, in which case the fungicides were formulated as EC formulations, containing 0.1% Trycol 5941 in the spray solutions. Wheat plants (variety Yuma) were grown from seed in a greenhouse in 50% mineral soil/50% soil-less Metro mix until the first leaf was fully emerged, with 7-10 seedlings per pot. These plants were inoculated with an aqueous spore suspension of Septoria tritici either prior to or after fungicide treatments. After inoculation the plants were kept in 100% relative humidity (one day in a dark dew chamber followed by two to three days in a lighted dew chamber at 20° C.) to permit spores to germinate and infect the leaf. The plants were then transferred to a greenhouse set at 20° C. for disease to develop. When disease symptoms were fully expressed on the l^st leaves of untreated plants, infection levels were assessed on a scale of 0 to 100 percent disease severity. Percent disease control was calculated using the ratio of disease severity on treated plants relative to untreated plants. Evaluation of Fungicidal Activity: Wheat Glume Blotch (Leptosphaeria nodorum; Bayer Code […]) Wheat plants (variety Yuma) were grown from seed in a greenhouse in 50% mineral soil/50% soil-less Metro mix until the first leaf was fully emerged, with 7-10 seedlings per pot. These plants were inoculated with an aqueous spore suspension of Leptosphaeria nodorum 24 hr after fungicide treatments. After inoculation the plants were kept in 100% relative humidity (one day in a dark dew chamber followed by two days in a lighted dew chamber at 20° C.) to permit spores to germinate and infect the leaf. The plants were then transferred to a greenhouse set at 20° C. for disease to develop. Fungicide formulation, application and disease assessment followed the procedures as described in the Example A.

Another data set concerns Venturia inaequalis. The data set can be described thus: Apple scab (VENTIN) disease control. It is filed as in vivo. The conditions noted are these: 1 Day Protectant, 100 ppm. The method, then:
Technical grades of materials were dissolved in acetone, which were then mixed with nine volumes of water containing 110 ppm Triton X-100. The fungicide solutions were applied onto wheat seedlings using an automated booth sprayer to run-off. All sprayed plants were allowed to air dry prior to further handling. All fungicides were evaluated using the aforementioned method for their activity vs. all target diseases. Wheat leaf blotch and brown rust activity were also evaluated using track spray applications, in which case the fungicides were formulated as EC formulations, containing 0.1% Trycol 5941 in the spray solutions. Wheat plants (variety Yuma) were grown from seed in a greenhouse in 50% mineral soil/50% soil-less Metro mix until the first leaf was fully emerged, with 7-10 seedlings per pot. These plants were inoculated with an aqueous spore suspension of Septoria tritici either prior to or after fungicide treatments. After inoculation the plants were kept in 100% relative humidity (one day in a dark dew chamber followed by two to three days in a lighted dew chamber at 20° C.) to permit spores to germinate and infect the leaf. The plants were then transferred to a greenhouse set at 20° C. for disease to develop. When disease symptoms were fully expressed on the l^st leaves of untreated plants, infection levels were assessed on a scale of 0 to 100 percent disease severity. Percent disease control was calculated using the ratio of disease severity on treated plants relative to untreated plants. Evaluation of Fungicidal Activity: Apple Scab (Venturia inaequalis; Bayer code […]) Apple seedlings (variety McIntosh) were grown in soil-less Metro mix, with one plant per pot. Seedlings with two expanding young leaves at the top (older leaves at bottom of the plants were trimmed) were used in the test. Plants were inoculated with a spore suspension of Venturia inaequalis 24 hr after fungicide treatment and kept in a 22° C. dew chamber with 100% RH for 48 hr, and then moved to a greenhouse set at 20° C. for disease to develop. Fungicide formulation, application and disease assessment on the sprayed leaves followed the procedures as described in the Example A.

In the next data set the test system is Phakopsora pachyrhizi. As to the kind of experiment: Asian soybean rust (PHAKPA) disease control. Type of data set: in vivo. The following applies: 25 ppm; for PHAKPA 1DP disease control rating: 1 Day Protectant; for PHAKPA 3DC disease control rating: 3 Day Curative. How it is done:
Evaluation of Fungicidal Activity: Asian Soybean Rust (Phakopsora pachyrhizi; Bayer Code PHAKPA)
Technical grades of materials were dissolved in acetone, which were then mixed with nine volumes of water containing 0.011% Tween 20. The fungicide solutions were applied onto soybean seedlings using an automated booth sprayer to run-off. All sprayed plants were allowed to air dry prior to further handling.
Soybean plants (variety Williams 82) were grown in soil-less Metro mix, with one plant per pot. Two weeks old seedlings were used for testing. Plants were inoculated either 3 days prior to or 1 day after fungicide treatments. Plants were incubated for 24 h in a dark dew room at 22° C. and 100% RH then transferred to a growth room at 23° C. for disease to develop. Disease severity was assessed on the sprayed leaves.

As usually defined, the melting point is the temperature of the solid-liquid transition.

`CCCO[C@H]1CCC[C@H](NC(=O)c2nccc(OC)c2OC(C)=O)C(=O)O[C@@H](C)[C@@H]1CCC(C)C` [Compound 74, 2-(((3S,7S,8S,9S)-8-isopentyl-9-methyl-2-oxo-7-propoxyoxonan-3-yl)carbamoyl)-4-methoxypyridin-3-yl acetate] gave a melting point of 46 to 50 °C. The pest or weed control at 100 ppm with Leptosphaeria nodorum was more than 70%. Moreover, the “VENTIN disease control rating” value in the data set with Venturia inaequalis is “A (>70)”. In the data set on Phakopsora pachyrhizi, the “PHAKPA 1DP disease control rating” value was “A (>70)” and the “PHAKPA 3DC disease control rating” value is recorded as “B (≦70)”.

As to `COc1ccnc(C(=O)N[C@H]2CCC[C@H](Oc3ccccc3)[C@@H](CCC(C)C)[C@H](C)OC2=O)c1OC(C)=O` [Compound 36], in the data set with Leptosphaeria nodorum, the pest or weed control at 100 ppm is more than 70%. Moreover, the “VENTIN disease control rating” value in the data set on Venturia inaequalis was “B (≦70)”. Besides, in the data set on Phakopsora pachyrhizi, the “PHAKPA 1DP disease control rating” value is reported as “A (>70)” and the “PHAKPA 3DC disease control rating” value is given as “B (≦70)”.

Turning to `CCCO[C@H]1CCC[C@H](NC(=O)c2nccc(OC)c2OC(C)=O)C(=O)O[C@@H](C)[C@@H]1Cc1ccccc1` [Compound 70], the melting point was in the range of 56 to 61 °C. Also, the pest or weed control at 100 ppm with Leptosphaeria nodorum is more than 70%. Further, the “VENTIN disease control rating” value with Venturia inaequalis is on record as “A (>70)”. Further, in the data set on Phakopsora pachyrhizi, the “PHAKPA 1DP disease control rating” value is on record as “A (>70)” and the “PHAKPA 3DC disease control rating” value was “B (≦70)”.

On to `CCCC[C@H]1[C@H](C)OC(=O)[C@@H](NC(=O)c2nccc(OC)c2OCOC(C)=O)CCC[C@@H]1OCC1CC1` [Compound 73], for which the pest or weed control at 100 ppm in the data set with Leptosphaeria nodorum is more than 70%.

As to `CCCC[C@H]1[C@H](C)OC(=O)[C@@H](NC(=O)c2nccc(OC)c2OCOC(C)=O)CCC[C@@H]1Oc1ccccc1` [Compound 33], the pest or weed control at 100 ppm in the data set with Leptosphaeria nodorum is more than 70%.

For `CCCO[C@H]1CCC[C@H](NC(=O)c2nccc(OC)c2OCOC(C)=O)C(=O)O[C@@H](C)[C@@H]1CCC(C)C` [Compound 25, ((2-(((3S,7S,8S,9S)-8-isopentyl-9-methyl-2-oxo-7-propoxyoxonan-3-yl)carbamoyl)-4-methoxypyridin-3-yl)oxy)methyl acetate], in the data set on Leptosphaeria nodorum, the pest or weed control at 100 ppm was more than 70%. In addition, the “VENTIN disease control rating” value with Venturia inaequalis is “A (>70)”. For the same compound, in the data set on Phakopsora pachyrhizi, the “PHAKPA 1DP disease control rating” value is listed as “A (>70)” and the “PHAKPA 3DC disease control rating” value is recorded as “B (≦70)”.

Consider `COc1ccnc(C(=O)N[C@H]2CCC[C@H](Oc3ccccc3)[C@@H](CCC(C)C)[C@H](C)OC2=O)c1OCOC(C)=O` [Compound 40], for which the melting point lay in the range of 47 to 51 °C. Further, the pest or weed control at 100 ppm in the data set on Leptosphaeria nodorum was more than 70%. Moreover, in the data set on Venturia inaequalis, the “VENTIN disease control rating” value was “A (>70)”. For the same compound, in the data set with Phakopsora pachyrhizi, the “PHAKPA 1DP disease control rating” value is “A (>70)” and the “PHAKPA 3DC disease control rating” value was “B (≦70)”.

Regarding `COc1ccnc(C(=O)N[C@H]2CCC[C@H](OCC3CC3)[C@@H](Cc3ccc(F)cc3)[C@H](C)OC2=O)c1OCOC(C)=O` [Compound 61], in the data set on Leptosphaeria nodorum, the pest or weed control at 100 ppm was more than 70%.
